Measurements from US20230165875A1, “METHYLTHIONINIUM COMPOUNDS FOR USE IN THE TREATMENT OF COVID-19” (priority 2020, published 2023).

Legend:
SARS-CoV-2 = conditions: Vero cells, 48 hrs; read-out: IC50, SARS-CoV-2 antiviral activity (viral replication); cited from earlier work
SARS-CoV2 = test: Virucidal activity / neutralising viral toxicity in Vero-E6 cell assay in the dark (Cagno et al 2020 data); format: cell-based
[1] = set-up: species or system rats; conditions: rat, in vivo, po, 10 mg/kg
Method: A further whole body autoradiography study rats compared the distribution of LMT-associated radioactivity in brain, lung and heart following oral dosing at 10 mg/kg. […] The ratio specific for LMT in lung is therefore unknown. It is possible to relate plasma levels determined in a large clinical population (Schelter et al., 2019) to expected tissue levels of LMT at steady state across a wide dosing range of 8-250 mg/day. However, this depends critically on the tissue:plasma ratio for specifically affected tissues such a lung.

[2] = Oxygen saturation and metHb in clinical trial patients after LMT dosing; format: in vivo, human
Method: The present inventors have used data available for patients participating in clinical trials to determine whether LMT enhances oxygen saturation of blood. Data were available for 18 subjects with oxygen saturation <94% at baseline (lower limit of normal range is 95%). Oxygen saturation levels were compared pre-dose and after 4 hrs in the clinic following administration of a single doses of LMT at 4 mg and ˜100mg (mean of 75, 100, 125 mg; FIG. 8).
In order to understand this effect further the inventors investigated whether the low oxygen saturation in these patients is due to elevation in metHb levels. There was no difference in metHb levels at baseline between subjects with low SpO2 and those with SpO2 levels in the normal range.

mitochondrial function = conditions: in vitro and in vivo; cited from earlier work
[3] = AD patients; cited from earlier work
[4] = Clinical safety / cardiotoxicity of LMTM; format: in vivo, human
Method: Therefore, doses up to 250 mg/day could be given safely for treatment of COVID-19 patients.

Compound: CCN(CCO)CCCC(C)Nc1ccnc2cc(Cl)ccc12 (centres unmarked) [hydroxychloroquine]
- IC50 (SARS-CoV-2): 720 nM

Compound: methylthionine [MT moiety]
- IC50 (SARS-CoV2; Vero cell assay, 20 hrs, calculated from Cagno et al. data): 32 nM

Compound: CN(C)c1ccc2c(c1)Sc1cc(N(C)C)ccc1N2 [LMT, hydromethylthionine]
- potency as SARS-CoV-2 antiviral relative to hydroxychloroquine and remdesivir (SARS-CoV2; assuming comparability of the assays): approximately 23 fold
- ratio of heart and lung to brain (LMT-associated radioactivity, total MT) [1]: 2:1

Compound: CN(C)c1ccc2c(c1)Sc1cc(N(C)C)ccc1N2.CS(=O)(=O)O.CS(=O)(=O)O [LMTM, N,N,N′,N′-tetramethyl-10H-phenothiazine-3,7-diaminium bis(hydromethanesulfonate)]
- metHb levels ([2]; higher doses, over a period of time): systematically increases metHb levels
- oxygen saturation of blood ([2]; subjects with oxygen saturation <94% at baseline, 4 hours after single dose of LMT at 4 mg and ~100 mg): significantly increased oxygen saturation
- mitochondrial function (mitochondrial function): enhance mitochondrial function
- minimum effective dose (anti-dementia effects) [3]: 8 mg/day
- optimally effective dose (anti-dementia effects) [3]: 16 mg/day
- safety across doses ([4]; 8-250 mg/day, three Phase 3 trials in over 2,000 patients with dementia): well established
- cardiotoxicity ([4]; human, in vivo): does not have the cardiotoxicity
